Legend:
TAOK2 [1] = target: T1, TAOK2 (Rattus norvegicus, UniProt Q9JLS3); experiment: Differential scanning fluorimetry (DSF) binding assay against TAOK2; conditions: DSF melt temperature shift of TAOK2, 5 μM TAOK2, compound 1 μM
T1 construct: made in house
T1 sequence (Q9JLS3 1-320 limits assumed): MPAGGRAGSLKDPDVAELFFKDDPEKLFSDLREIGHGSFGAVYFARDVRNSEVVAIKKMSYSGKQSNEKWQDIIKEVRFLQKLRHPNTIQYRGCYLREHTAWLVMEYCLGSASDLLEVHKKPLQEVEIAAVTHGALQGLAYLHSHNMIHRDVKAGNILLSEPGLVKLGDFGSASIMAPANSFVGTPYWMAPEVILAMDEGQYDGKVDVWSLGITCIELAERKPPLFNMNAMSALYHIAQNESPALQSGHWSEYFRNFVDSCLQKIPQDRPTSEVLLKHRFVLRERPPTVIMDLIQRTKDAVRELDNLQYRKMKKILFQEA
Procedure: (§1) Differential scanning fluorimetry binding assays of selected compounds against TAOK2 were conducted to measure strength of compound binding. A solution of 5 μM TAOK2, 50 mM MgCl2, 50 mM HEPES pH 7.5, and 2.5x SyproOrange(Life Technologies) was made. Compound was added to a final concentration of 1 μM. 25 μl of the reaction solution was added to the wells of a Biorad Multiplate 96 wellclear PCR plate. The plate was covered with a Biorad Microseal ‘B’ seal. Plates were read in a Biorad CFX96 Real-Time PCR system. The temperature was increased from 4° C. to 80° C., with fluorescence measurements being taken every 0.5° C. in the 6-FAM Fluorescein channel. The fluorescence response to heat curve was fit to a binding isotherm in order to determine the inflection point, which was taken as the melt temperature (Tm).
The prevalence of multiple heterocycles in the compounds is reflective of the composition of the screen (described in Methods in Supplemental Material). These 13 compounds were purchased from Chembridge Inc. and ChemDiv Inc. for measurement of direct binding using Differential Scanning Fluorimetry (DSF). DSF measures protein melt temperature (Tm) with a lipophilic dye (SyproOrange). As the temperature of the solution is increased, measurements of dye fluorescence are taken. When the protein begins to denature, hydrophobic regions in the protein are exposed, and the dye is able to bind. This binding insulates the dye from the surrounding water, reducing quenching effects and allowing fluorescence. Binding of small molecules to protein has a stabilizing effect, and this is seen by an increase in melt temperature (Table 1). The ΔTm values ranged from 3.0 to −0.6° C. The three compounds with the highest positive shifts were SW034538, SW163112, and SW083688, with 3° C., 2.2° C., and 2° C. shifts, respectively.

TAOK2 [2] = target: T1, TAOK2; experiment: Kinase-Glo high-throughput screen / re-screen of TAOK2 activity (MBP substrate); format: biochemical; conditions: estimate from HTS re-screen at 1, 3.3 and 10 μM
Procedure: TAOK2 activity was screened in a high-throughput fashion using Kinase-Glo (Promega). A 20 μL, solution of 50 mM HEPES pH 7.4, 50 mM MgCl2, 1.27 mg/ml MBP and 0.005 mg/ml TAOK2 was added to each well of a 384 well Corning plate using a Biotek MultiFlo dispenser. 0.2 μl of compound (columns 3 to 22, 50 μM), DMSO negative control (columns 2, 23, and 24), or staurosporine positive control (column 1, 43.4 μM) were then added to each well with a Biomek Liquid handler. 10 μl of 50 μg/ml ATP solution was added to each well with a Labsystems Multidrop384. The plates were incubated at RT for 100 minutes. 20 μl Kinase Glo (Promega) was added to each well, and allowed to incubate for 10minutes under agitation. Luminescence was read on an Envision Multilabel plate reader.
After cherry picking primary hits, the selected compounds were assayed in a limited dose-response format (10, 3.3, and 1 μM) in triplicate using the primary enzymatic assay for TAOK2. The data for each assay well was normalized to the neutral controls. The normalized activity values (replicates) for each compound in each assay were then condensed to a single value (condensed activity) using the “Robust Condensing” method in Genedata Screener®. The condensed activity is the most representative single value of the triplicates. In general, the triplicates were pre-condensed into a pair of values as follows:
In order to study the relationship between TAOK2 and both cancer and autophagy, a high-throughput screen was performed using a 200,000 compound library to discover novel small-molecule kinase inhibitors (FIG. 1A-D). Phosphorylation reactions were performed in a 384 well format against the generic kinase substrate Myelin Basic Protein (MBP) with the addition of compound. Kinase-Glo (Promega) was then added to each well to detect remaining ATP concentration. Thus, inhibitory compounds would decrease TAOK2 activity, which would increase both remaining ATP concentration and luminescence in those wells.
After the initial screen, 1645 compounds were identified with inhibition greater than three σ above the mean DMSO control (FIG. 1A). The Z′ factor of the initial screen across all plates was 0.77, indicating high significance (FIG. 1B). These compounds were then re-screened in triplicate under the same conditions, with the compounds being assayed at three concentrations (1 μM, 3.3 μM, and 10 μM, FIG. 1C, D). 432 compounds were identified after the re-screen with average inhibitions greater than 10 sigma at the 10 μM concentration. The Z′ factor of the confirmation screen was 0.52, again indicating high significance.

p38 = p38 (Homo sapiens, UniProt Q16539); experiment: DSF against p38 (selectivity panel of MAPK cascade members); format: binding; conditions: for ΔΔTm (p38): difference between the TAOK2 ΔTm and that of p38, DSF
Chain of p38 (Q16539 whole entry): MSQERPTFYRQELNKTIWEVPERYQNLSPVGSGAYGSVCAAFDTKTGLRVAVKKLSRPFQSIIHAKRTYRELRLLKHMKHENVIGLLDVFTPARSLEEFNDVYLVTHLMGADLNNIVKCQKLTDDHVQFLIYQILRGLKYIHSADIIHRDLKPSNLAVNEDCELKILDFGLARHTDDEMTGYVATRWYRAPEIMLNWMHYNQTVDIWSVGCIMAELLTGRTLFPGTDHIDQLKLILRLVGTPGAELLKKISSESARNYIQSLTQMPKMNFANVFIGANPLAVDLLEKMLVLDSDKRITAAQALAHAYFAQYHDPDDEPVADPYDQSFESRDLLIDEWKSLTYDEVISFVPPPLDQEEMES
Procedure: as §1
(§2) The difference between the TAOK2 ΔTm and that of p38 and ASK1 was determined. […] The majority of the other compounds were also preferentially inhibitory toward TAOK2. Of the 13 compounds, SW034538, SW172006 and SW083688 were cross-verified for selectivity by performing a specificity screen against 45 kinases commercially at Eurofins Cerep, Inc. (FIG. 3).

ASK1 = target: T2, ASK1 (Homo sapiens, UniProt Q99683); experiment: DSF against ASK1 (selectivity panel of MAPK cascade members); format: binding; conditions: difference between the TAOK2 ΔTm and that of ASK1, DSF
T2 sequence (Q99683 1-1374): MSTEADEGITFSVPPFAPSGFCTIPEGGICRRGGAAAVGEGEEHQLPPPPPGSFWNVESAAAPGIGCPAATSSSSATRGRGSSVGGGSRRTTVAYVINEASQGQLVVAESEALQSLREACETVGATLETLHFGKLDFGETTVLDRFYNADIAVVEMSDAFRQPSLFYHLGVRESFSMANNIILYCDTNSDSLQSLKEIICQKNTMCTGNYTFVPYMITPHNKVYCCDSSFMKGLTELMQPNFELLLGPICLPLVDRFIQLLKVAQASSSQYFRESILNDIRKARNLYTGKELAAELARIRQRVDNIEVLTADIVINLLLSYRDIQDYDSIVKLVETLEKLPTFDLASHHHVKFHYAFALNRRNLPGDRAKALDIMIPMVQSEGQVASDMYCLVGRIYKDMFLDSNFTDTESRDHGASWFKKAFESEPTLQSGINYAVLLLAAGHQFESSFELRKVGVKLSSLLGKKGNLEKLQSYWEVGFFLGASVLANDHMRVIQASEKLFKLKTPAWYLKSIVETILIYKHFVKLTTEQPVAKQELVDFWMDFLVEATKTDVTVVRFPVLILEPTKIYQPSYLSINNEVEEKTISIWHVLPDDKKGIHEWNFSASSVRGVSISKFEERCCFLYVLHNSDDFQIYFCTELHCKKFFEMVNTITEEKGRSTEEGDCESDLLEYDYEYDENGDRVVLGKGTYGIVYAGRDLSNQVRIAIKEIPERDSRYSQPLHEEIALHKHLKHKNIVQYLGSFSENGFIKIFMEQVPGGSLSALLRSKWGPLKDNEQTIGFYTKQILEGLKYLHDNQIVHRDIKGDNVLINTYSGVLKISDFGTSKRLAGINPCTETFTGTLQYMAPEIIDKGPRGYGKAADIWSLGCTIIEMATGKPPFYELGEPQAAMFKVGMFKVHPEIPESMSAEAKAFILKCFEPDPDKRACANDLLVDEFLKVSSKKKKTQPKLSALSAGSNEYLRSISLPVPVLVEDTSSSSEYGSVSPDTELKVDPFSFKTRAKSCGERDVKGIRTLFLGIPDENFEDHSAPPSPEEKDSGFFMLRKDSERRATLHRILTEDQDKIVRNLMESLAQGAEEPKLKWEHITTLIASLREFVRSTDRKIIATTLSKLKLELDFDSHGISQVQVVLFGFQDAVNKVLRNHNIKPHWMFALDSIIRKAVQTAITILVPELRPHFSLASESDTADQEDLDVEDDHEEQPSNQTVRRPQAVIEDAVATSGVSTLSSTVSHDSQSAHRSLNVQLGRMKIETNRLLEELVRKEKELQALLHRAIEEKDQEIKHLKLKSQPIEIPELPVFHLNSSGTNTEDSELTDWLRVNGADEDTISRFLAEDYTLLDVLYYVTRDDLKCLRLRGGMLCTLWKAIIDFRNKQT
Procedure: as §1, §2

Row | ΔTm (TAOK2 [1]) [°C] | IC50 (TAOK2 [2]) [µM] | ΔTm with respect to p38 (p38; DSF cross-reactivity with p38) [°C] | ΔΔTm (p38) (p38) [°C] | ΔΔTm (ASK1) (ASK1) [°C] | Structure (SMILES)
1 | 0.1 | 3 | – | – | – | CCc1ccccc1Nc1ncc(-c2sc(NC(C)=O)nc2C)s1 [SW034513]
2 | 1.2 | 0.6 | 0.9 | 0.3 | 1.1 | O=C(NCC1COc2ccccc2O1)c1ccc2c(=O)n(Cc3ccco3)c(=S)[nH]c2c1 (stereo not shown) [SW083604]
3 | 1.6 | 6 | – | 1.3 | 1.2 | Cc1ccc(NCCCC(=O)N/N=C/c2cc(Br)cc(Br)c2O)cc1 [SW106178]
4 | 0.5 | 1 | – | – | – | Cc1cccc(NC(=S)N/N=C/c2c[nH]c3ccccc23)c1 [SW109820]
